Data on one molecule can be found in patent US20240268372A1, “Methods and Compositions for Extending Organ and Tissue Preservation” (The General Hospital Corporation, priority 2021, published 2024).

For experiment [1], the system named is whole rat livers. In words: Optimized partial freezing of whole rat livers: SNMP recovery after freezing. Particulars: −10° C., 1 day; at 3 h. As for the experimental part: (§1) Within this standardized protocol, we first compared GLY, EG, and PG as main permeating CPA using a freezing temperature of −10° C. and storage duration of 1 day (FIG. 37). Using PG as the CPA, we subsequently tested the effect of freezing temperature (−10° C. vs −15° C.) and storage duration (1 day vs 5 days) on liver viability after partial freezing using the same protocol (FIG. 38).
Machine perfusion system: The perfusion system provides a continuous perfusion through the portal vein that is pressure, flow, and temperature controlled. The perfusates can be either recirculated or flushed with a single pass though the liver and perfusates can be changed without interrupting perfusion. The setup and operation of the perfusion system is described in detail elsewhere (see, e.g., ref. 15). There were two oxygenators used in this study, including the Radnoti (Cat #130144) and Affinity Pixie Oxygenator (Cat #BBP241). Due to the flexibility and low cost of the Radnoti oxygenator, it was first used for initial optimization and characterization studies, including determining the effect of permeating CPAs (GLY vs EG vs PG; FIG. 37), temperature (−10 vs −15° C., FIG. 38) storage duration (1 vs 5 days, FIG. 38), and warm ischemic injury. Once the major aspects of the protocol were optimized and characterized, we used the clinical grade Affinity Pixie Oxygenator. […]

The subject of experiment [2] is whole rat livers. The experiment is described as follows: Optimized partial freezing of whole rat livers: ex vivo simulated transplantation (normothermic reperfusion with whole blood). Particulars: −10° C., 1 day. Here is the method:
as §1
The Affinity Pixie Oxygenator is a clinical grade oxygenator that has graduated fiber bundle density technology and radial flow path that is designed to create a more uniform blood flow, enhance gas transfer, reduce pressure drops, and decrease prime volume. Moreover, it also contains a Balance® Biosurface that contains a hydrophilic polymer coating to reduce platelet adhesion and activation. This adaptation to the oxygenator is essential since recirculating whole blood during simulated transplantation may trigger coagulation and inflammatory events that are not representative of in vivo events and could skew observed outcomes.
Machine perfusion system: The perfusion system provides a continuous perfusion through the portal vein that is pressure, flow, and temperature controlled. The perfusates can be either recirculated or flushed with a single pass though the liver and perfusates can be changed without interrupting perfusion. The setup and operation of the perfusion system is described in detail elsewhere (see, e.g., ref. 15). There were two oxygenators used in this study, including the Radnoti (Cat #130144) and Affinity Pixie Oxygenator (Cat #BBP241). Due to the flexibility and low cost of the Radnoti oxygenator, it was first used for initial optimization and characterization studies, including determining the effect of permeating CPAs (GLY vs EG vs PG; FIG. 37), temperature (−10 vs −15° C., FIG. 38) storage duration (1 vs 5 days, FIG. 38), and warm ischemic injury.
Preconditioning during SNMP: Directly after procurement the livers were perfused with 250 ml of SNMP preloading solution (see Table 7 for composition of all solutions). The perfusion temperature was set at 21° C. and perfusion was initiated at 5 ml/min. […] Next, the livers were perfused for 30 additional minutes to allow for cellular uptake of 3-O-methyl-D-glucose (3-OMG).
Preloading of CPAs during HMP: The SNMP preloading solution was gradually switched to HMP preloading solution in […] increments, each with 10% decreasing and 10% increasing volumetric fractions of SNMP and HMP preloading solution, respectively. During this switch, the perfusion temperature was lowered to 4° C., and flows were adjusted to a maximum perfusion pressure of 3 mmHg. Dependent on the flowrate, the solution switch took 10-15 minutes. The HMP preloading was continued for 30 additional minutes to ensure complete equilibration of the solution throughout the peripheral liver tissue.
This was done in 10 fractions of 10 ml, each with 10% decreasing and 10% increasing volumetric fractions of HMP preloading solution and storage solution, respectively. During this switch, the perfusion temperature was maintained at 4° C., and the flowrates were lowered to ensure a maximum perfusion pressure of 3 mmHg. The final 15 ml fraction of 100% storage solution was loaded at a fixed flowrate of 0.5 ml/min.
Partial freezing: After loading of the storage solution, the liver was placed in a bag with 50 ml fresh storage solution and suspended in a pre-cooled chiller (Engel, Schwertberg, Austria). Depending on the experimental condition the chiller temperature was pre-cooled to −10° C. or −15° C. and the liver stored for […] 5 days.

As for `OCC(O)CO` [GLY, glycerol], the “weight gain during SNMP recovery” value in the experiment on whole rat livers [1] is listed as 35.00±20.49%. For the same molecule, in the experiment with whole rat livers [2], the “bile production during simulated transplantation” value was “did not produce bile”; the “lactate clearance after first hour of simulated transplantation” value is “not observed”; the “microscopic tissue structure (H&E, blinded pathologist)” value is reported as “most unfavorable results”. Further, in the experiment on whole rat livers [2] (at 2 h), the oxygen uptake during simulated transplantation was 17.9 ± 5.86 µL O2/min/g, the “tissue adenylate energy charge” value is 0.064±0.039 and the “weight gain during simulated transplantation” value was 19.00±16.63%. This molecule also returned an AST levels in the experiment with whole rat livers [2] (at 2 h of simulated transplantation) of 1528±388 U/L.
